Results reported in patent publication US20240246935A1 (Plexium, Inc., priority 2021, published 2024).

Target: human E3 ligase component cereblon (CRBN) (Homo sapiens (Human), UniProt Q96SW2)
Assay: Cereblon (CRBN) target engagement, NanoBRET TE Intracellular E3 Ligase Assay in transfected HEK-293T cells
Details: read-out: CRBN Binding EC50
Summary of the method: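 Live HEK-293T cells co-transfected overnight with NanoLuc-CRBN (CRBN at NanoLuc C-terminus) and DDB1 vectors (10:990 ng) were given CRBN tracer and an 11-point compound series for 2 h at 37° C. BRET read at 450/610 nm with extracellular NanoLuc inhibitor present; IC50 from four-parameter logistic fit.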

Sequence of human E3 ligase component cereblon (CRBN) (Q96SW2 whole entry): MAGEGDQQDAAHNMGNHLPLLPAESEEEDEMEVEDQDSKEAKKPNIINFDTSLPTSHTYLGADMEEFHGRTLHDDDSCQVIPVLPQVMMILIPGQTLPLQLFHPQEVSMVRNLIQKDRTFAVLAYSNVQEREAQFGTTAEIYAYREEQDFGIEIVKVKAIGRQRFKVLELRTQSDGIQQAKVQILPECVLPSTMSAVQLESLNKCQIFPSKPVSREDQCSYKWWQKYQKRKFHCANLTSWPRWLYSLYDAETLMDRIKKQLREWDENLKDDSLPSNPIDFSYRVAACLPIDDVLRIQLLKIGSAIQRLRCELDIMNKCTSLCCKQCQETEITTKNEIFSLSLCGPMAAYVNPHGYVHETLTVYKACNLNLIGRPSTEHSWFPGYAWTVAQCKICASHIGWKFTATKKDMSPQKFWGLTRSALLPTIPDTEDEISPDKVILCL
Sequence of human E3 ligase component cereblon (CRBN) (Q16531 whole entry partner): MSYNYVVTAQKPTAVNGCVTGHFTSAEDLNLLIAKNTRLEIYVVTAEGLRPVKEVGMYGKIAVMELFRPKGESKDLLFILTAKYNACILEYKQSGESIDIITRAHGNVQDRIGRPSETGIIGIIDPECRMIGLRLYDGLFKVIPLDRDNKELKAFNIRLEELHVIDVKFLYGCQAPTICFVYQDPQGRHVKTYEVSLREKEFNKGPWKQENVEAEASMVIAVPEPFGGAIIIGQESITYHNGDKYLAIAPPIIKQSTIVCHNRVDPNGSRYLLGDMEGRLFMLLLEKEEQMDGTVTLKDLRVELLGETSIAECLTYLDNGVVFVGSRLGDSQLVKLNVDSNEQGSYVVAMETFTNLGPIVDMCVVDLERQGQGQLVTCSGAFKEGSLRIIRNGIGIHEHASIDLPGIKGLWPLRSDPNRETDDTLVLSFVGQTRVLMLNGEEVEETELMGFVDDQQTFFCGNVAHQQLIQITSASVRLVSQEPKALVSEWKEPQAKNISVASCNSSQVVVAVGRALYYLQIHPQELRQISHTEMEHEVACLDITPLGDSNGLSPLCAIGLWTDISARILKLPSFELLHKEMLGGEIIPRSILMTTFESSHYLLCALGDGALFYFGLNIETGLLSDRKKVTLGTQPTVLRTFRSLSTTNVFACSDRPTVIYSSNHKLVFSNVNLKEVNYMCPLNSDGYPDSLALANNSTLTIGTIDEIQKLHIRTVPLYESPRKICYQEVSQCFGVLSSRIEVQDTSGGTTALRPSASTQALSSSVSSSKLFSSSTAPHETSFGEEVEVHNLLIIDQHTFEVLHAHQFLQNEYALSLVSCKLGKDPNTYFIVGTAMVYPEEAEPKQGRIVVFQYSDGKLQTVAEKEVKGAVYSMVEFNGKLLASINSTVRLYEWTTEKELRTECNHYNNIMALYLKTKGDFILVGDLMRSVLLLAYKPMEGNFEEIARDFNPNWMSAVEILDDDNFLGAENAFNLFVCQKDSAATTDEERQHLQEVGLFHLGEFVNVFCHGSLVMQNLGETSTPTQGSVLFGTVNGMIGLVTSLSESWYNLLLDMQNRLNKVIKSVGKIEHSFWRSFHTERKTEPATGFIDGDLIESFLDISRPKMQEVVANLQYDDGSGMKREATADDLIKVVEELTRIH

| SMILES | EC50 [µM] |
| --- | --- |
| N#Cc1cc(Cl)ccc1C1CN([C@@H]2CCCC[C@@H]2Oc2ccc3c(c2)CN(C2CCC(=O)NC2=O)C3=O)C1 (mixture of isomers) [Compound 100, Rac-5-chloro-2-(1-((cis)-2-((2-(2,6-dioxopiperidin-3-yl)-1-oxoisoindolin-5-yl)oxy)cyclohexyl)azetidin-3-yl)benzonitrile] | 0.025 |
| O=C1CCC(N2Cc3cc(O[C@H]4CCCC[C@@H]4N4CC(c5ccc(F)cc5)C4)ccc3C2=O)C(=O)N1 (single isomer, unassigned) [Compound 50] | 0.004 |
| O=C1CCC(N2Cc3cc(O[C@H]4CCCC[C@@H]4N4CC(c5ccccc5)C4)c(F)cc3C2=O)C(=O)N1 (single isomer, unassigned) [Compound 52] | 0.011 |
| O=C1CCC(N2Cc3c(ccc(O[C@H]4CCCC[C@@H]4N4CC(c5ccccc5)C4)c3F)C2=O)C(=O)N1 (single isomer, unassigned) [Compound 65] | 0.052 |
| O=C1CCC(N2Cc3c(ccc(O[C@H]4CCCC[C@@H]4N4CC(c5ccccc5)C4)c3F)C2=O)C(=O)N1 (single isomer, unassigned) [Compound 66] | 0.024 |
| O=C1CCC(N2Cc3cc(O[C@H]4CCCC[C@@H]4N4CC(c5cccc(OC(F)(F)F)c5)C4)ccc3C2=O)C(=O)N1 (stereo partly drawn) [Compound 35, 3-(1-oxo-5-(((1S,2S)-2-(3-(3-(trifluoromethoxy)phenyl)azetidin-1-yl)cyclohexyl)oxy)isoindolin-2-yl)piperidine-2,6-dione] | 0.017 |
| O=C1CCC(N2Cc3cc(O[C@H]4CCCC[C@@H]4N4CC(c5ccccc5OC(F)(F)F)C4)ccc3C2=O)C(=O)N1 (stereo partly drawn) [Compound 36, 3-(1-oxo-5-(((1S,2S)-2-(3-(2-(trifluoromethoxy)phenyl)azetidin-1-yl)cyclohexyl)oxy)isoindolin-2-yl)piperidine-2,6-dione] | 0.031 |
| O=C1CCC(N2Cc3cc(O[C@H]4CCCC[C@@H]4N4CC(c5cccc(F)c5F)C4)ccc3C2=O)C(=O)N1 (stereo partly drawn) [Compound 64, 3-(5-(((1S,2S)-2-(3-(2,3-difluorophenyl)azetidin-1-yl)cyclohexyl)oxy)-1-oxoisoindolin-2-yl)piperidine-2,6-dione] | 0.011 |
| O=C1CCC(N2Cc3cc(O[C@H]4CCCC[C@@H]4N4CC(c5cccc(F)c5)C4)ccc3C2=O)C(=O)N1 (stereo partly drawn) [Compound 111, 3-(5-(((1S,2S)-2-(3-(3-fluorophenyl)azetidin-1-yl)cyclohexyl)oxy)-1-oxoisoindolin-2-yl)piperidine-2,6-dione] | 0.006 |

The next lines start with the values.

| EC50 [µM] | SMILES |
| --- | --- |
| 0.002 | O=C1CCC(N2Cc3cc(O[C@H]4CCCC[C@@H]4N4CC(c5ccc(N6CCOCC6)cc5)C4)ccc3C2=O)C(=O)N1 (stereo partly drawn) [Compound 124, 3-(5-(((1S,2S)-2-(3-(4-morpholinophenyl)azetidin-1-yl)cyclohexyl)oxy)-1-oxoisoindolin-2-yl)piperidine-2,6-dione] |
| 0.006 | O=C1CC[C@@H](N2Cc3cc(O[C@H]4CCCC[C@@H]4N4CC(c5ccccc5)C4)ccc3C2=O)C(=O)N1 [Compound 125, (R)-3-(1-oxo-5-(((1S,2S)-2-(3-phenylazetidin-1-yl)cyclohexyl)oxy)isoindolin-2-yl)piperidine-2,6-dione] |
| 0.017 | O=C1CCC(N2Cc3cc(O[C@H]4CCCC[C@@H]4N4CC(c5ccccc5C(F)(F)F)C4)ccc3C2=O)C(=O)N1 (stereo partly drawn) [Compound 129, 3-(1-oxo-5-(((1S,2S)-2-(3-(2-(trifluoromethyl)phenyl)azetidin-1-yl)cyclohexyl)oxy)isoindolin-2-yl)piperidine-2,6-dione] |
| 0.004 | O=C(O)CC(O)(CC(=O)O)C(=O)O.O=C1CCC(N2Cc3cc(O[C@H]4CCCC[C@@H]4N4CC(c5ccccc5)C4)ccc3C2=O)C(=O)N1 (stereo partly drawn) [Compound 130, 3-(1-oxo-5-(((1S,2S)-2-(3-phenylazetidin-1-yl)cyclohexyl)oxy)isoindolin-2-yl)piperidine-2,6-dione 2-hydroxypropane-1,2,3-tricarboxylate] |
| 0.011 | O=C1CCC(N2Cc3cc(O[C@H]4CCCCC[C@@H]4N4CC(c5ccccc5)C4)ccc3C2=O)C(=O)N1 (stereo partly drawn) [Compound 131, 3-(1-oxo-5-(((1S,2S)-2-(3-phenylazetidin-1-yl)cycloheptyl)oxy)isoindolin-2-yl)piperidine-2,6-dione] |
| 0.011 | O=C1CCC(N2Cc3cc(O[C@H]4CCCC[C@@H]4N4CC(c5ccc(O)cc5)C4)ccc3C2=O)C(=O)N1 (stereo partly drawn) [Compound 132, 3-(5-(((1S,2S)-2-(3-(4-hydroxyphenyl)azetidin-1-yl)cyclohexyl)oxy)-1-oxoisoindolin-2-yl)piperidine-2,6-dione] |
| 0.014 | O=C1CCC(N2Cc3cc(O[C@H]4CCCC[C@@H]4N4CC(c5ccccc5O)C4)ccc3C2=O)C(=O)N1 (stereo partly drawn) [Compound 133, 3-(5-(((1S,2S)-2-(3-(2-hydroxyphenyl)azetidin-1-yl)cyclohexyl)oxy)-1-oxoisoindolin-2-1)piperidine-2,6-dione] |
| 0.012 | O=C1CCC(N2Cc3cc(O[C@H]4CCCC[C@@H]4N4CC(c5cccc(O)c5)C4)ccc3C2=O)C(=O)N1 (stereo partly drawn) [Compound 134, 3-(5-(((1S,2S)-2-(3-(3-hydroxyphenyl)azetidin-1-yl)cyclohexyl)oxy)-1-oxoisoindolin-2-yl)piperidine-2,6-dione] |
